Source: patent publication US20030176316A1, “Methods for treatment of rheumatoid arthritis” (priority 2001, published 2003)
Where a name gives a salt, the structure may show the parent alone. Read-outs that look alike come from different tables or passages of the source.

Experiments:
[1] = biological target: T1, GST-cGB-PDE5 fusion protein (cGMP binding sites of human PDE5A) (Homo sapiens, UniProt O76074); test: cGMP binding assay with GST-cGB-PDE5 fusion protein
T1 construct: made in house; host or cells: E. coli BL21 (DE3)
Excerpt: RT-PCR method is used to obtain the cGB domain of PDE5 with forward and reverse primers designed from bovine PDE5A cDNA sequence (McAllister-Lucas L. M. et al., J Biol. Chem. 268, 22863-22873, 1993) and the selection among PDE 1-10 families. 5′-3′, Inc. kits for total RNA followed by oligo (dT) column purification of mRNA are used with HT-29 cells. […] It is then cloned into pGEX-5×-3 glutathione-S-transferase (GST) fusion vector (Pharmacia Biotech )with tac promoter, and EcoRI and XhoI cut sites. The fusion vector is then transfected into E. Coli BL21 (DE3) bacteria (Invitrogen). The transfected BL21 bacteria is grown to log phase, and then IPTG is added as an induce. The induction is carried at 20° C. for 24 hrs. The bacteria are harvested and lysed. The soluble cell lysate is incubated with GSH conjugated Sepharose 4B (GSH-Sepharose 4B). The GST-cGB-PDE5 fusion protein can bind to the GSH-Sepharose beads, and the other proteins are washed off from beads with excessive cold PBS.
Then, the mixture is transferred to Brandel MB-24 cell harvester with GF/B as the filter membrane followed by 2 washes with 10 mL of cold 5 mM potassium buffer(pH 6.8). The membranes are then cut out and transferred to scintillation, vials followed by the addition of 1 mL of H2O and 6 mL of Ready Safe™ liquid scintillation cocktail to each vial. The vials are counted on a Beckman LS 6500 scintillation counter.
The quenching by filter membrane or other debris are also calibrated.

U937 cells = test: apoptosis induction of U937 cells (active caspase 3, indirect immunofluorescence); format: cell-based; conditions: 24 hours
Experimental: U937 cells (from ATCC Rockville, Md.) were grown in RPMI media supplemented with 5% FCS, glutamine, antibiotic/antimycotic and sodium pyruvate. Total RNA was isolated from two U937 cultures, one treated with 5nM TPA for 48 hours and one grown in normal media as listed above, using the Rouche High Pure RNA Isolation Kit (cat# 1 828 665) as per manufacturers protocol. cDNA was then synthesized from the total RNA using GibcoBRL Superscriptll (Cat# 18064-022) reverse transcriptase as per manufacturers protocol. The resulting cDNA was used as a template for RT-PCR reactions using primer sets specific for PDE2 (forward: […], reverse: […]) or PDE5 (forward: […], reverse: […]). mRNA for PDE2 and 5 were both present in the untreated U937 cells. Upon treatment with TPA, the relative amounts of PDE2 mRNA increased 5 fold. Therefore, U937 cells treated with TPA and driven to differentiate into an activated macrophage like state have elevated levels of PDE2 mRNA (see FIG. 1).
The presence of PDE2 and PDE5 protein within U937 cells was confirmed by indirect immunofluorescence (IIF). U937 cells were cultured as above. Two U937 cultures, one grown in the presence of 5 nM TPA for 48 hours and one grown in normal media were processed. All cultures were collected by centrifugation (Shandon Cytospin, 2 minutes @ 600 rpm) onto poly-L lysine-coated slides and immediately fixed in fresh 3% paraformaldehyde buffered in PBS for 10 minutes. Adherent cultures were grown on coverslips and fixed as above. Cells were permeablized in 0.2% triton-100 for 2 minutes. Slides were blocked with blocking buffer (5% goat serum, 5% glycerol, 1% gelatin from cold water fish skin and 0.04% NaN3 in PBS) for 1 hour at room temperature.
Slides were then incubated for 1 hour at 37° C. in a humid chamber with antibodies specific for PDE2 (generated in a sheep against the peptide […]) or PDE5 (generated in sheep against the peptide […]). […]
The level of apoptosis in U937 cells was quantified by scoring 500 consecutive cells for the presence of active caspase 3. […]

PDE 5 = PDE 5 (Homo sapiens, UniProt O76074); test: competitive (with cGMP) binding to PDE5
[2] = seven-day dose-range finding study in rats; format: in vivo; conditions: seven days, 2000 mg/kg/day
28-day study in rats = format: in vivo; conditions: 28 days, 50 and 500 mg/kg/day
Experimental: A 28-day study in rats was also carried out at 0, 50, 500 and 2000 mg/kg/day.

[3] = long-term safety assessment study in rats, 91 days; format: in vivo
Excerpt: These changes were not associated with any gross clinical abnormality.

[4] = 91-day oral study in dogs; format: in vivo; conditions: 91 days, highest dose group

With `Nc1ncnc2c1ncn2[C@@H]1O[C@@H]2COP(=O)(O)O[C@H]2[C@H]1O` [Cyclic AMP] the “competition with cGMP in binding to the cGMP binding sites of GST-cGB-PDE5” value (shortened to “competition with cGMP in binding”) [1] was “did not compete with cGMP in binding”.

With `CCCc1nn(C)c2c(=O)[nH]c(-c3cc(S(=O)(=O)N4CCN(C)CC4)ccc3OCC)nc12` [sildenafil] the “levels of apoptosis (active caspase 3)” value (U937 cells; 0.3 nM) was “No increase in the levels of apoptosis compared to normal background”.

For `CC1=C(CC(=O)NCc2ccccc2)c2cc(F)ccc2/C1=C\c1ccncc1` [Example 38, (Z)-5-Fluoro-2-Methyl-(4-Pyridylidene)-3-(N-Benzyl) Indenylacetamide Hydrochloride], the “competition with cGMP in binding” value ([1]; 3H-cGMP 2 μM, 22° C., 1 hour) was “does not bind to the cGMP-binding site of PDE5”, the “competitive (with cGMP) binding to PDE 5” value (PDE 5) was “does competitively (with cGMP) bind to PDE 5” and the effects [2] was “labored breathing and/or abnormal respiratory sounds, decreased weights gains and food consumption ion male rats, and increased liver weights in female rats”. For the same compound, the “liver and thyroid weight increases at the lower doses” value (28-day study in rats) was “not statistically significant”, the “clinical biochemistry and hematology” value [3] was “no changes in clinical biochemistry and hematology were evident” and the “microscopic alterations of the liver” value [4] was “no microscopic alterations”. The “apoptosis, fluorescent image of active caspase 3 (FIG. 8)” value (U937 cells; 1 μM) was “undergoing apoptosis as reflected by the presence of active caspase 3”.

With `CCCCOC1C2OP(=O)(O)OCC2OC1n1cnc2c(=O)[nH]c(N)nc21` (centres unmarked) [2′-O-butyl-cGMP] the “competition with cGMP in binding” value ([1]; 3H-cGMP 2 μM, 22° C., 1 hour) was “did not compete with cGMP in binding”.

In the case of `COc1ccc(C2CNC(=O)C2)cc1OC1CCCC1` (centres unmarked) [rolipram], the “levels of apoptosis (active caspase 3)” value (U937 cells; 0.5 μM) is reported as “No increase in the levels of apoptosis compared to normal background”.

In the case of `CCCCOC1C2OP(=O)(O)OCC2OC1n1cnc2c(N)ncnc21` (centres unmarked) [2′-O-butyl-cAMP], the “competition with cGMP in binding” value ([1]; 3H-cGMP 2 μM, 22° C., 1 hour) is reported as “did not compete with cGMP in binding”.

For `O=c1ccn([C@@H]2O[C@@H]3COP(=O)(O)O[C@H]3[C@H]2O)c(=O)[nH]1` [cUMP, cyclic UMP], the “competition with cGMP in binding” value ([1]; 3H-cGMP 2 μM, 22° C., 1 hour) was “did not compete with cGMP in binding”.

For `Nc1ccn([C@@H]2O[C@@H]3COP(=O)(O)O[C@H]3[C@H]2O)c(=O)n1` [cCMP, cyclic CMP], the “competition with cGMP in binding” value ([1]; 3H-cGMP 2 μM, 22° C., 1 hour) was “did not compete with cGMP in binding”.
